Earlier results, collected in PMC5778071, “Development of matrix metalloproteinase-targeted probes for lung inflammation detection with positron emission tomography” (Scientific Reports, 2018).

What was measured:
MMP-12 = system: MMP-12; design: method as in PMID 25438884; conditions: fluorogenic inhibition assay; cited from earlier work
MMP-9 = system: MMP-9; design: method as in PMID 25438884; conditions: fluorogenic inhibition assay; cited from earlier work

## CC(C)C[C@H](CC(=O)NO)C(=O)N[C@@H](Cc1ccccc1)C(=O)N[C@@H](CCCCNC(=O)c1ccc(F)cc1)C(N)=O [^18F-FB-ML5]
MMP-12
  IC50: 138 nM
MMP-9
  IC50: 31.5 nM
